Each structure is given as a SMILES string. pKi: −log10 of the molar value.

In this test the target is T1, human H4 receptor (Homo sapiens, UniProt Q9H3N8).
T1 construct: expressed in transfected cells; host or cells: HEK 293T cells, transient transfection with polyethyleneimine
In words: Radioligand displacement studies at the human H4 receptor ([3H]histamine). The test is classed as binding. Conditions: [3H]histamine displacement, membranes of HEK 293T cells transfected with human H4R, 1 hour at 22° C. As for the experimental part: Radioligand displacement studies at the human H4 receptor were conducted. […] Approximately 4 million cells were seeded in a 10-cm dish and cultured overnight before transfection. For transfection of each dish of cells, the transfection mixture was prepared in 1 ml serum-free DMEM and contained 5 μg of human H4R receptor plasmid and 15 μl of 1 mg/ml 25 kDa linear polyethyleneimine (Polyscience, Inc., USA). The mixture was incubated for 10-15 minutes at room temperature before it was added into the monoloyer cell culture loaded with 5 ml fresh cell culture medium. Two days after transfection the cells were washed with PBS containing 1 mM EDTA, collected as pellet by centrifuging, and stored at −20° C. until use.
For the radioligand binding study, pellets of transfected cells were homogenized in H4R binding buffer (100 mM Tris-HCl, pH 7.4). For displacement binding assays, the membranes were typically incubated with 10^−4 to 10^−11 M of ligands (stock concentration was 10 mM 1 DMSO) in the presence of [^3H]histamine (Perkin-Elmer Life Science, Inc., USA) in a total volume of 200 μl. The reaction mixtures were incubated for 1 hour at room temperature (22° C.), and harvested on 96-well glass fiber C plates that were pretreated with 0.3% 750 kDa PEI. The binding assay data were analyzed using Prism 4.0 (Graphpad Software Inc., USA).

T1 sequence (Q9H3N8 whole entry): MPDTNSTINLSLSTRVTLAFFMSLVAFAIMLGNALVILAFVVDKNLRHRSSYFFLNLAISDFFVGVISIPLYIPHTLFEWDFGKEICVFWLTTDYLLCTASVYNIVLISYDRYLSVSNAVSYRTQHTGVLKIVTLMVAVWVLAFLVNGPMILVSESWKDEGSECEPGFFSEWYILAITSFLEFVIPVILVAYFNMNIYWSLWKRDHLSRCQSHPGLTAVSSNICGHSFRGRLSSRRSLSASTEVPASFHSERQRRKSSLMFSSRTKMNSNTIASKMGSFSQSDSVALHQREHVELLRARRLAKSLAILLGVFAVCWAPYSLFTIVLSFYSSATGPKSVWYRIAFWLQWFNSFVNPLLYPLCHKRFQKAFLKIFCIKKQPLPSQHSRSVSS

The pKi is the negative decadic logarithm of the Ki, by convention in mol/L. A high value points to a low Ki. For `CN1CCN(c2nc(NCc3ccc(C#N)cc3)c3cc(Cl)ccc3n2)CC1` [VUF10553, 4-((6-Chloro-2-(4-methylpiperazin-1-yl)quinazolin-4-ylamino)methyl)benzonitrile], the negative logarithm of the Ki (pKi) is > 6.00. Next, `CCOC(=O)CNc1nc(N2CCN(C)CC2)nc2ccc(Cl)cc12` [VUF10456, Ethyl 2-(6-chloro-2-(4-methylpiperazin-1-yl)quinazolin-4-ylamino)acetate]: > 6.00. As for `CN1CCN(c2nc(NCc3ccc(N)cc3)c3cc(Cl)ccc3n2)CC1` [VUF10509, N-(4-aminobenzyl)-6-chloro-2-(4-methylpiperazin-1-yl)quinazolin-4-amine], the negative logarithm of the Ki (pKi) was > 6.00. Regarding `COc1ccc(CNc2nc(N3CCN(C)CC3)nc3ccc(Cl)cc23)cc1` [VUF10505, 6-Chloro-N-(4-methoxybenzyl)-2-(4-methylpiperazin-1-yl)quinazolin-4-amine], the pKi was > 6.00. With `CN1CCN(c2nc(NCc3ccc(F)cc3)c3cc(Cl)ccc3n2)CC1` [VUF10513, 6-Chloro-N-(4-fluorobenzyl)-2-(4-methylpiperazin-1-yl)quinazolin-4-amine], the pKi is > 6.00. As to `CN1CCN(c2nc(NCCc3ccc([N+](=O)[O-])cc3)c3cc(Cl)ccc3n2)CC1` [VUF10506, 6-Chloro-2-(4-methylpiperazin-1-yl)-N-(4-nitrophenethyl)quinazolin-4-amine], the pKi was > 6.00. Turning to `CN1CCN(c2ccc3cc(Cl)ccc3n2)CC1` [VUF6959, 6-Chloro-2-(4-methyl-piperazinyl)-quinoline], the pKi is > 6.00.

For the origin of these results see patent US20100016293A1, “Quinazolines and Related Heterocyclic Compounds, and Their Therapeutic Use” (priority 2006, published 2010).
